The values that follow come from US7183375B2, “Inhibitors for continuous activation for calcineurin” (Agencey of Industrial Science and Technology, priority 2002, dated 2007).

Where a SMILES comes first, the peptide text is derived from it. Where no end group is shown, it is not given here.

The test system of one assay is neuronal cells. Nature of the assay: Neuronal cell death induced by glutamic acid (TUNEL staining, TUNEL positive cell count). It is filed as cell-based, Wister rat. To be noted: peptides of SEQ Nos. 5 and 6 1 μM, FK506 1 μM, ALLM 25 μM; glutamic acid 500 μM; TUNEL at 3, 6, 12 or 24 hours; FIG. 2. As for the experimental part: (§1) After the brain hippocampus from 18 days embryo of Wister rat had been removed, it was treated with PBS containing 0.05% trypsin for 15 minutes at 37° C. After the neuronal cells were suspended with a glass pipet, 1×10^6 cells were cultured in a 3.5 cm diameter culture dish which was previously coated with poly-D-lysine. As the medium, 3 ml Neuro Basal medium (available from Invitrogen, Inc.) complemented with B27 supplement (0.03 ml; available from Invitrogen, Inc.), penicillin (100 units/ml in the final concentration; available from Invitrogen, Inc.) and streptomycin (100 μg/ml in the final concentration; available from Invitrogen, Inc.) was used and the cultivation was carried out in carbon dioxide incubator (5% CO2, 37° C.).
The neuronal cells were cultured in the same manner as in Example 1, and then the above-mentioned peptides of SEQ Nos. 5 and 6 were added in the final concentration of 1 μM in the same manner as in Example 1. The calcineurin inhibitor, FK506 (available from Fujisawa pharmaceutical Co., Ltd.; the final concentration of 1 μM) or calpain inhibitor, ALLM (available from Merck & Co., Inc.; the final concentration of 25 μM) was added as a control. After 2 hours incubation with each reagent, glutamic acid was added in the final concentration of 500 μM, followed by 15 minutes incubation. […] The TUNEL positive cell was counted.

The test system of assay [1] is calcineurin subunit A (CaNA). Nature of the assay: Cleavage of CaNA in cultured neuronal cells after glutamic acid addition (Western blotting). Type of assay: cell-based, Wister rat. To be noted: peptides of SEQ Nos. 5 and 6 at 1 μM; glutamic acid 500 μM, 15 minutes; cells collected at 3 hours and 24 hours; FIG. 1. As for the experimental part:
as §1
The peptides of above-mentioned SEQ Nos. 5 and 6 were added in the culture solution with the final concentration of 1 μM 10 days after beginning of culture, and it was incubated in carbon dioxide incubator (5% CO2, 37° C.). Three hours after the addition, glutamic acid was added in the final concentration of 500 μM, and it was incubated for 15 minutes. The culture solution was then exchanged, and it was further cultured. The cells were collected at 3 hours and 24 hours after glutamic acid was added, were disrupted by ultrasonic wave in 1% SDS solution, and the SDS-PAGE buffer was added thereto. […]

The subject of the next assay is neuronal cell death. The following applies: reported in literature (Morioka 1999; Springer 2000); cited from earlier work.

For `CSCC[C@@H](C=O)NC(=O)[C@H](CC(C)C)NC(=O)[C@H](CC(C)C)NC(C)=O` [ALLM] (Ac-Leu-Leu-Met-aldehyde), the “neuronal cell death induced by glutamic acid” value with neuronal cells was “same degree”.

As to “cleavage inhibiting peptide: peptides of SEQ Nos. 5 and 6 added together to the culture solution, 1 μM final concentration (chain 1 RRRRRRRRRRFDGATAAARKEVIRNK; chain 2 RRRRRRRRRRREESESVLTLKGLTPTG; also: mixture of two peptides added together)”, the “cleavage of calcineurin caused by the addition of glutamic acid” value in assay [1] is listed as “inhibited”. Besides, the “neuronal cell death induced by glutamic acid” value in the assay with neuronal cells is given as “suppressive effect”.

With cyclosporin A, the neuronal cell death entry with neuronal cell death is recorded as “suppresses neuronal cell death”.
